Source: patent US8686113B2 (priority 2009, dated 2014)
In brackets after ≈: the same amount, converted by molar mass. Non-standard residues stand in square brackets, D forms with d. Residues, ends and D or L forms follow the SMILES beside them. Hyp = O=C(O)[C@@H]1C[C@@H](O)CN1; hArg = N=C(N)NCCCC[C@H](N)C(=O)O; dOrn = NCCC[C@@H](N)C(=O)O; Orn = NCCC[C@H](N)C(=O)O

Legend:
E. coli BL21 A1 = assay type: cell-based, Escherichia coli; settings: BL21, 20 h
Experimental: (§1) The minimum inhibitory concentrations (MIC) of the antimicrobial peptides and peptide derivatives were determined in microdilution assays. These used a continuous peptide dilution in sterile flat-bottomed 96-well microtiter plates (polystyrene, Greiner Bio-One GmbH, Frickenhausen, Germany) and a total volume of 100 μL per well. The aqueous peptide or peptidomimetic solutions were diluted with 1% TSB water, to obtain a final concentration of 256 μg/mL. 50 μL of the peptide or peptidomimetic solution was pipetted into the first well of each series and stirred. From this solution, 50 μL was transferred to the second well, stirred and again 50 μL was transferred to the next well, and so on. A double dilution series is obtained, beginning at 256 μg/mL in the first well to 125 ng/mL in the twelfth well. The bacteria, e.g. E. coli BL21 A1, were cultured overnight at 37° C. in nutrient broth (NB, Carl Roth GmbH+Co. KG, Karlsruhe, Germany). 50 μL of a 5×10^6 bacteria/mL suspension in 1% TSB was added to each well of the microtiter plate and thus a final concentration of the peptides or peptidomimetics from 128 μg/mL (well 1) to 62.5 ng/mL (well 12) was established in each series. The plates were incubated at 37° C. for 20 h and then the absorption was measured at 595 nm with a TECAN microtiter plate spectrophotometer (Tecan Trading AG, Mannedorf, Switzerland). The MIC values of all peptides and peptidomimetics were determined in triplicate. Sterile water was used as negative control. The MIC value represents the lowest peptide concentration at which no bacterial growth is observed after an incubation time of 20 h at 37° C.
(§2) The MIC values of the peptides and peptide derivatives against Escherichia coli BL21 A1 and Micrococcus luteus ATCC 10240 are given in Table 7.

M. luteus 10240 = assay: Growth inhibition assay (microdilution MIC); assay type: cell-based, Micrococcus luteus; settings: 10240, 20 h
Experimental: as §1, §2

Row | Molecule | MIC E. coli BL21 A1 (E. coli BL21 A1) [µg/mL] | MIC M. luteus 10240 (M. luteus 10240) [µg/mL]
1 | CC[C@H](C)[C@H](NC(=O)[C@H](CCCN)NC(=O)[C@H](CCCNC(=N)N)NC(=O)[C@@H]1CCCN1C(=O)[C@@H]1CCCN1C(=O)[C@H](CCCNC(=N)N)NC(=O)[C@@H]1CCCN1C(=O)[C@H](CCCNC(=N)N)NC(=O)[C@@H]1CCCN1C(=O)[C@H](CC(C)C)NC(=O)[C@H](Cc1ccc(O)cc1)NC(=O)[C@@H]1CCCN1C(=O)[C@@H]1CCCN1C(=O)[C@H](CCCCN)NC(=O)[C@H](CC(=O)O)NC(=O)[C@@H](N)C(C)C)C(=O)N[C@@H](Cc1ccc(O)cc1)C(=O)N[C@@H](CC(N)=O)C(=O)N[C@@H](CCCCNC(=N)N)C(N)=O [compound 70] (H-VDKPPYLPRPRPPR[Orn]IYN[hArg]-NH2) | 4 (≈ 1.69 µM) | 4 (≈ 1.69 µM)
2 | CC[C@H](C)[C@H](NC(=O)[C@H](CCCNC(=N)N)NC(=O)[C@H](CCCNC(=N)N)NC(=O)[C@@H]1CCCN1C(=O)[C@@H]1CCCN1C(=O)[C@H](CCCNC(=N)N)NC(=O)[C@@H]1CCCN1C(=O)[C@H](CCCNC(=N)N)NC(=O)[C@@H]1CCCN1C(=O)[C@H](CC(C)C)NC(=O)[C@H](Cc1ccc(O)cc1)NC(=O)[C@@H]1CCCN1C(=O)[C@@H]1CCCN1C(=O)[C@H](CCCCN)NC(=O)[C@H](CC(=O)O)NC(=O)[C@@H](N)CCCN)C(=O)N[C@@H](Cc1ccc(O)cc1)C(=O)N[C@@H](CC(N)=O)C(=O)N[C@@H](CCCNC(=N)N)C(N)=O [compound 82] (H-[Orn]DKPPYLPRPRPPRRIYNR-NH2) | 8 (≈ 3.33 µM) | 8 (≈ 3.33 µM)
3 | CC[C@H](C)[C@H](NC(=O)[C@H](CCCNC(=N)N)NC(=O)[C@H](CCCNC(=N)N)NC(=O)[C@@H]1CCCN1C(=O)[C@@H]1CCCN1C(=O)[C@H](CCCNC(=N)N)NC(=O)[C@@H]1CCCN1C(=O)[C@H](CCCNC(=N)N)NC(=O)[C@@H]1CCCN1C(=O)[C@H](CC(C)C)NC(=O)[C@H](Cc1ccc(O)cc1)NC(=O)[C@@H]1CCCN1C(=O)[C@@H]1CCCN1C(=O)[C@H](CCCCN)NC(=O)[C@H](CC(=O)O)NC(=O)[C@H](CCCN)NC(=O)[C@@H](CS)NC(=O)[C@H](C)N)C(=O)N[C@@H](Cc1ccc(O)cc1)C(=O)N[C@@H](CC(N)=O)C(=O)N[C@@H](CCCNC(=N)N)C(N)=O [compound 83] (H-A[dC][Orn]DKPPYLPRPRPPRRIYNR-NH2) | 16 (≈ 6.2 µM) | 16 (≈ 6.2 µM)
4 | CC[C@@H](C)[C@@H](NC(=O)[C@@H](CCCNC(=N)N)NC(=O)[C@@H](CCCNC(=N)N)NC(=O)[C@H]1CCCN1C(=O)[C@H]1CCCN1C(=O)[C@@H](CCCNC(=N)N)NC(=O)[C@H]1CCCN1C(=O)[C@@H](CCCNC(=N)N)NC(=O)[C@H]1CCCN1C(=O)[C@@H](CC(C)C)NC(=O)[C@@H](Cc1ccc(O)cc1)NC(=O)[C@H]1CCCN1C(=O)[C@H]1CCCN1C(=O)[C@@H](CCCCN)NC(=O)[C@@H](CC(=O)O)NC(=O)[C@H](N)C(C)C)C(=O)N[C@H](Cc1ccc(O)cc1)C(=O)N[C@H](CC(N)=O)C(=O)N[C@H](CCCNC(=N)N)C(N)=O [compound 115] (H-[dV][dD][dK][dP][dP][dY][dL][dP][dR][dP][dR][dP][dP][dR][dR][dI][dY][dN][dR]-NH2) | 64 (≈ 26.8 µM) | 16 (≈ 6.69 µM)
5 | H-ADKPPYLPRPRPPRRIYNR-NH2 [compound 29] | 8 | 4
6 | H-DKPPYLPRPRPPRRIYNR-NH2 [compound 86] | 32 | 8
7 | H-VAKPPYLPRPRPPRRIYNR-NH2 [compound 30] | 16 | 4
8 | H-VDAPPYLPRPRPPRRIYNR-NH2 [compound 31] | 64 | 32
9 | H-VDKPPALPRPRPPRRIYNR-NH2 [compound 34] | 128 | 16
10 | H-VDKPPYAPRPRPPRRIYNR-NH2 [compound 35] | 128 | 16
11 | H-VDKPPYLPAPRPPRRIYNR-NH2 [compound 37] | 32 | 32
12 | H-VDKPPYLPRPHPPRRIYNNR-OH [compound 8] | 64 | 32
13 | H-VDKPPYLPRPHPPRRIYNRN-OH [compound 9] | 64 | 16

Further lines, results first:

Row | MIC E. coli BL21 A1 (E. coli BL21 A1) [µg/mL] | MIC M. luteus 10240 (M. luteus 10240) [µg/mL] | Molecule
14 | >256 | 16 (≈ 6.24 µM) | CC[C@H](C)[C@H](NC(=O)[C@H](CCCNC(=N)N)NC(=O)[C@H](CCCNC(=N)N)NC(=O)[C@@H]1CCCN1C(=O)[C@@H]1CCCN1C(=O)[C@H](CCCNC(=N)N)NC(=O)[C@@H]1CCCN1C(=O)[C@H](CCCNC(=N)N)NC(=O)[C@@H]1CCCN1C(=O)[C@H](CC(C)C)NC(=O)[C@H](Cc1ccc(O)cc1)NC(=O)[C@@H]1CCCN1C(=O)[C@@H]1CCCN1C(=O)[C@H](CCCCN)NC(=O)[C@H](CC(=O)O)NC(=O)[C@@H](NC(=O)[C@@H](CS)NC(=O)[C@H](C)N)C(C)C)C(=O)N[C@@H](Cc1ccc(O)cc1)C(=O)N[C@@H](CC(N)=O)C(=O)N[C@@H](CCCNC(=N)N)C(=O)O [compound 80] (H-A[dC]VDKPPYLPRPRPPRRIYNR-OH)
15 | >256 | 64 (≈ 27.8 µM) | CC[C@H](C)[C@H](NC(=O)[C@H](Cc1ccc(O)cc1)NC(=O)[C@H](CC(N)=O)NC(=O)[C@@H](N)CCCN)C(=O)N[C@@H](CCCN)C(=O)N[C@@H](CCCNC(=N)N)C(=O)N1CCC[C@H]1C(=O)N1CCC[C@H]1C(=O)N[C@@H](CCCNC(=N)N)C(=O)N1CCC[C@H]1C(=O)N[C@@H](CCCNC(=N)N)C(=O)N1CCC[C@H]1C(=O)N[C@@H](CC(C)C)C(=O)N[C@@H](Cc1ccc(O)cc1)C(=O)N1CCC[C@H]1C(=O)N1CCC[C@H]1C(=O)N[C@@H](CCCCN)C(=O)N[C@@H](CC(=O)O)C(=O)N[C@H](C(N)=O)C(C)C [compound 113] (H-[Orn]NYI[Orn]RPPRPRPLYPPKDV-NH2)
16 | >256 | 128 (≈ 55.5 µM) | CC[C@H](C)[C@H](NC(=O)[C@H](Cc1ccc(O)cc1)NC(=O)[C@H](CC(N)=O)NC(=O)[C@@H](N)CCCN)C(=O)N1C[C@H](O)C[C@H]1C(=O)N[C@@H](CCCNC(=N)N)C(=O)N1CCC[C@H]1C(=O)N1CCC[C@H]1C(=O)N[C@@H](CCCNC(=N)N)C(=O)N1CCC[C@H]1C(=O)N[C@@H](CCCNC(=N)N)C(=O)N1CCC[C@H]1C(=O)N[C@@H](CC(C)C)C(=O)N[C@@H](Cc1ccc(O)cc1)C(=O)N1CCC[C@H]1C(=O)N1CCC[C@H]1C(=O)N[C@@H](CCCCN)C(=O)N[C@@H](CC(=O)O)C(=O)N[C@H](C(N)=O)C(C)C [compound 114] (H-[Orn]NYI[Hyp]RPPRPRPLYPPKDV-NH2)
17 | 64 (≈ 27.8 µM) | 32 (≈ 13.9 µM) | CC[C@@H](C)[C@@H](NC(=O)[C@@H](CCCN)NC(=O)[C@@H](CCCNC(=N)N)NC(=O)[C@H]1CCCN1C(=O)[C@H]1CCCN1C(=O)[C@@H](CCCNC(=N)N)NC(=O)[C@H]1CCCN1C(=O)[C@@H](CCCNC(=N)N)NC(=O)[C@H]1CCCN1C(=O)[C@@H](CC(C)C)NC(=O)[C@@H](Cc1ccc(O)cc1)NC(=O)[C@H]1CCCN1C(=O)[C@H]1CCCN1C(=O)[C@@H](CCCCN)NC(=O)[C@@H](CC(=O)O)NC(=O)[C@H](N)C(C)C)C(=O)N[C@H](Cc1ccc(O)cc1)C(=O)N[C@H](CC(N)=O)C(=O)N[C@H](CCCN)C(N)=O [compound 116] (H-[dV][dD][dK][dP][dP][dY][dL][dP][dR][dP][dR][dP][dP][dR][dOrn][dI][dY][dN][dOrn]-NH2)
18 | 256 (≈ 111 µM) | 32 (≈ 13.9 µM) | CC[C@@H](C)[C@@H](NC(=O)[C@@H](Cc1ccc(O)cc1)NC(=O)[C@@H](CC(N)=O)NC(=O)[C@H](N)CCCN)C(=O)N[C@H](CCCN)C(=O)N[C@H](CCCNC(=N)N)C(=O)N1CCC[C@@H]1C(=O)N1CCC[C@@H]1C(=O)N[C@H](CCCNC(=N)N)C(=O)N1CCC[C@@H]1C(=O)N[C@H](CCCNC(=N)N)C(=O)N1CCC[C@@H]1C(=O)N[C@H](CC(C)C)C(=O)N[C@H](Cc1ccc(O)cc1)C(=O)N1CCC[C@@H]1C(=O)N1CCC[C@@H]1C(=O)N[C@H](CCCCN)C(=O)N[C@H](CC(=O)O)C(=O)N[C@@H](C(N)=O)C(C)C [compound 118] (H-[dOrn][dN][dY][dI][dOrn][dR][dP][dP][dR][dP][dR][dP][dL][dY][dP][dP][dK][dD][dV]-NH2)
19 | 8 | 8 | H-VDKAPYLPRPRPPRRIYNR-NH2 [compound 32]
20 | 8 | 8 | H-VDKPAYLPRPRPPRRIYNR-NH2 [compound 33]
21 | 32 | 8 | H-VDKPPYIPRPRPPRRIYNR-NH2 [compound 77]
22 | 32 | 8 | H-VDKPPYLARPRPPRRIYNR-NH2 [compound 36]
23 | 32 | 8 | H-VDKPPYLPRARPPRRIYNR-NH2 [compound 38]
24 | 64 | 16 | H-VDKPPYLPRPAPPRRIYNR-NH2 [compound 39]
25 | 64 | 32 | H-VDKPPYLPRPFPPRRIYNR-OH [compound 13]
